# Non-standard residues stand in square brackets, D forms with d. Residues, ends and D or L forms follow the SMILES beside them. dPhe(4-Cl) = N[C@H](Cc1ccc(Cl)cc1)C(=O)O; d2Nal = N[C@H](Cc1ccc2ccccc2c1)C(=O)O; dCit = NC(=O)NCCC[C@@H](N)C(=O)O; d3Pal = N[C@H](Cc1cccnc1)C(=O)O
# Experiments:
# [1] = test system: benign prostate hypertrophy (BPH) patients; assay: Clinical therapy of BPH with Cetrorelix (Example 1); type: in vivo, human; settings: 4 to 8 weeks therapy regimen
# Method: Cetrorelix is administered in a dose of 0.5 mg to 2 mg daily for 4 to 8 weeks for the therapy of BPH. A dose of 5 mg to 30 mg, dispensed once per week or every 10 days also over a time period of 4 to 8 weeks as well as one every two weeks or one injection per month of 20 mg to 60 mg can also decisively improve the clinical symptoms and signs. […] The prostate volume decreases by 20 to 40% during the treatment time of 4 to 8 weeks. […] In addition, at least 30% of the patients achieve an improvement of the urine flow of 6 ml/sec with this therapy. This is almost equivalent to an improvement like that associated with the golden standard operation, and in considerably shorter time. […] These clinical benefits continue for at least 3 to 6 months after therapy. This allows a long-term therapy of BPH with only an intermittent treatment of 2 to max. 4 injection cycles over 4 to 8 weeks.
# This therapy represents a significant therapeutic advance in the treatment of BPH since it not only achieves an improvement of the clinical symptoms of BPH but also a diminution of the prostate and an improvement of the urine flow like those associated with surgery The protocols of the invention avoid the negative consequences of an operation, e.g. urine incontinence, retrograde ejaculation, blood loss with the consequence of blood transfusions and also the risks of infection associated with surgery.
# BPH patients = settings: 500 μg every 12 hours for 4 weeks, cited from earlier work
# [2] = test system: prostate carcinoma patients; settings: cited from earlier work
# [3] = 500 μg every 12 hours, end of the 6 weeks of therapy
smiles,measurement,setting,value
CC(=O)N[C@H](Cc1ccc2ccccc2c1)C(=O)N[C@H](Cc1ccc(Cl)cc1)C(=O)N[C@H](Cc1cccnc1)C(=O)N[C@@H](CO)C(=O)N[C@@H](Cc1ccc(O)cc1)C(=O)N[C@H](CCCNC(N)=O)C(=O)N[C@@H](CC(C)C)C(=O)N[C@@H](CCCNC(=N)N)C(=O)N1CCC[C@H]1C(=O)N[C@H](C)C(N)=O [Cetrorelix] (Ac-[d2Nal][dPhe(4-Cl)][d3Pal]SY[dCit]LRP[dA]-NH2),patients achieving an improvement of the urine flow of 6 ml/sec,[1],at least 30%
same,quality of life,[1],significant improvements
same,sexual performance,[1],No limitations in sexual performance are observed
same,testosterone level,[1],"Submaximal decreases of testosterone occur, but these are above those levels associated with castration"
same,increase of the peak flow of the urine,[1]; comparable to the α-blockers,approximately 3 ml/sec
same,testosterone levels during treatment,"BPH patients; BPH patients, no castration values during the last three weeks",fluctuated at subnormal levels
same,"testosterone levels, initially","BPH patients; all patients, initial phase",lowering in testosterone levels to a castration level
same,prostate volume,BPH patients,distinct decrease
same,symptoms of dysuria,BPH patients,distinct decrease
same,"testosterone levels, initially","[2]; 500 μg every 12 hours for 6 weeks, all patients, initial phase",lowering in testosterone levels to a castration level
same,overall condition of the patient,[2]; [3],considerable improvement
same,testosterone values at the end of therapy,[2]; [3],at the castration levels

# From US6054432A, “Means for treating prostate hypertrophy and prostate cancer” (Asta Medica Aktiengesellschaft, priority 1997, dated 2000)
